In US20230190713A1 (priority 2020, published 2023):
Where “and” joins values, the source holds several entries; their conditions need not be identical. Identical values can stand only once. Entries after “also recorded” stand apart in the source; their conditions may differ. Like-named read-outs stand apart in the source and are kept apart here.

How the values were obtained:
2019-nCoV [1] = tested on: 2019-nCoV; set-up: species or system K18-hACE male mice; settings: mouse, in vivo
2019-nCoV [2] = tested on: 2019-nCoV; set-up: species or system Syrian hamster; settings: hamster, in vivo
Ebola virus replicon = assay: microbe, parasite or virus in culture; format: cell-based; settings: Zaire ebolavirus
in vitro = settings: Syrian hamster
[3] = tested on: 2019-nCoV (2019BetaCoV/Wuhan/WIV04/2019 strain); assay: microbe, parasite or virus in culture; format: cell-based
[4] = tested on: 2019-nCoV, Ebola virus, avian influenza virus A/GuangZhou/99 (H9N2); format: cell-based
[5] = tested on: 2019-nCoV, Ebola virus, and avian influenza virus A/GuangZhou/99 (H9N2); assay: organism not typed; format: cell-based; settings: read-out: EC50 values (level reached)
[6] = tested on: avian influenza virus A/GuangZhou/99 (H9N2); assay: organism not typed; format: cell-based
A/WSN/33(H1N1) virus = tested on: A/WSN/33(H1N1) virus; set-up: species or system BALB/c female mice; settings: mouse, in vivo
[7] = BSR-T7/5, read-out: Ebola virus EC50 (µM)
[8] = BSR-T7/5, read-out: concentration at which replication efficiency of Ebola replicon is inhibited by 50%
[9] = Severe acute respiratory syndrome coronavirus 2, Vero C1008, 48 h
[10] = Severe acute respiratory syndrome coronavirus 2, Vero C1008, read-out: 2019-nCoV EC50 (µM)
[11] = Severe acute respiratory syndrome coronavirus 2, Vero C1008, read-out: concentration at which replication efficiency of 2019-nCoV is inhibited by 50%
[12] = MDCK, read-out: A/GuangZhou/99(H9N2) EC50 (µM)
[13] = unidentified influenza virus, H9N2, MDCK, read-out: concentration at which replication efficiency of avian influenza virus H9N2 is inhibited by 50%

Row | Compound | EC50 (Ebola virus replicon; [7]) | EC50 [3, 10] | EC50 [6, 12] | also measured
1 | CN(/N=C/c1ccccc1C(=O)O)c1nc(-c2ccccc2Cl)cs1 [Compound 1] | 0.018 µM | 0.017 µM | 0.021 µM | weight loss and death caused by viral infection (2019-nCoV [1]): did not significantly improve; also recorded: could not significantly improve; reduction of viral load in lung tissue (2019-nCoV [2]): more than 100 fold; viral infection-induced weight loss (2019-nCoV [2]): significantly slowed; EC50 (Ebola virus replicon; BSR-T7/5, 24 h): 0.018 µM; EC50 (Ebola virus replicon; [8]): 0.018 µM; CC50 (in vitro): 85800 nM; EC50 [3, 9]: 0.017 µM; EC50 [3, 11]: 0.017 µM; therapeutic effect in combination with other antiviral drugs [4]: better therapeutic effects; EC50 [5]: ~10 nM; EC50 ([6]; MDCK): 0.021 µM; EC50 [6, 13]: 0.02 µM
2 | CCN(/N=C/c1ccccc1C(=O)O)c1nc(-c2ccccc2Cl)cs1 [Compound 2] | 0.13 µM | 0.16 µM | 0.28 µM | –
3 | CCCN(/N=C/c1ccccc1C(=O)O)c1nc(-c2ccccc2Cl)cs1 [Compound 3] | 5.42 µM | 2.35 µM | 2.38 µM | –
4 | CC(C)N(/N=C/c1ccccc1C(=O)O)c1nc(-c2ccccc2Cl)cs1 [Compound 4] | 5.35 µM | 10.2 µM | 8.37 µM | –
5 | CCC(C)N(/N=C/c1ccccc1C(=O)O)c1nc(-c2ccccc2Cl)cs1 (stereo not drawn) [Compound 5] | 89 µM | > 100 µM | 45.4 µM | –
6 | CCCC(C)N(/N=C/c1ccccc1C(=O)O)c1nc(-c2ccccc2Cl)cs1 (stereo not drawn) [Compound 6] | 97 µM | > 100 µM | 22.2 µM | –
7 | O=C(O)c1cc(C(F)(F)F)ccc1/C=N/Nc1nc(-c2ccccc2Cl)cs1 [Compound 8-1] | 1.14 µM | 5.25 µM | > 100 µM | –
8 | CN(/N=C/c1ccc(C(F)(F)F)cc1C(=O)O)c1nc(-c2ccccc2Cl)cs1 [Compound 8] | 49 µM | > 100 µM | > 100 µM | –
9 | Cc1ccc(/C=N/Nc2nc(-c3ccccc3Cl)cs2)c(C(=O)O)c1 [Compound 9-1] | 0.89 µM | 0.07 µM | 0.33 µM | –
10 | Cc1ccc(/C=N/N(C)c2nc(-c3ccccc3Cl)cs2)c(C(=O)O)c1 [Compound 9] | 2.26 µM | 0.29 µM | 1.37 µM | –
11 | O=C(O)c1cc(F)ccc1/C=N/Nc1nc(-c2ccccc2Cl)cs1 [Compound 10-1] | 0.97 µM | 0.11 µM | 0.33 µM | –
12 | CN(/N=C/c1ccc(F)cc1C(=O)O)c1nc(-c2ccccc2Cl)cs1 [Compound 10] | 0.32 µM | 0.1 µM | 3.2 µM | –
13 | Cc1ccc(/C=N/N(C)c2nc(-c3ccccc3)c(C)s2)c(C(=O)O)c1 [Compound 11] | – | > 100 µM | – | –
14 | Cc1sc(N/N=C/c2ccccc2C(=O)O)nc1-c1ccccc1 [Compound 12-1] | – | 0.52 µM | – | –
15 | Cc1sc(N(C)/N=C/c2ccccc2C(=O)O)nc1-c1ccccc1 [Compound 12] | – | 0.35 µM | – | –
16 | Cc1sc(N(C)/N=C/c2ccccc2C(=O)O)nc1-c1ccccc1Cl [Compound 13] | – | > 100 µM | 8.27 µM | –
17 | O=C(O)c1ccccc1/C=N/Nc1nc(-c2ccccc2Cl)cs1 [Compound 16] | 11.4 µM | 1.56 µM | 13.2 µM | EC50 (Ebola virus replicon; BSR-T7/5, 24 h): 11.4 µM; EC50 (Ebola virus replicon; [8]): 15 µM; EC50 [3, 9]: 1.56 µM; EC50 [3, 11]: 1.55 µM; therapeutic effect in combination with other antiviral drugs [4]: better therapeutic effects; EC50 [5]: ~10 nM; EC50 ([6]; MDCK): 13.2 µM; EC50 [6, 13]: 13.2 µM; mice treated (survival) (A/WSN/33(H1N1) virus): 50%-100% and 50% and 100%
18 | O=C(O)c1cc(F)c(F)cc1/C=N/Nc1nc(-c2ccccc2Cl)cs1 [Compound 23-1] | – | 5.44 µM | – | –
19 | O=C(O)c1ccccc1/C=N/Nc1nc(-c2cc(Cl)ccc2Cl)cs1 [Compound 55] | 5.4 µM | 1.02 µM | 4.06 µM | –
